The results in this text go back to patent US20260116868A1 (Arcus Biosciences, Inc., priority 2023, published 2026).

pEC50, pIC50: −log10 of the molar value.

One assay relates to Jurkat cells. Kind of assay: IL-2 secretion assay in Jurkat cells activated with CD3/CD28 T Cell Activator. It counts as cell-based. The conditions noted are these: Homo sapiens; Jurkat cells, CD3/CD28 T Cell Activator, 24 h, IL-2 AlphaLISA; read-out: IL-2 Secretion (EC50). The gist of the method: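 Jurkat cells in Opti-MEM were preincubated 1 h at 37° C with compound (final 10 μM to 300 pM, 16-point 1:2 dilution), then activated with human CD3/CD28 T Cell Activator for 24 h at 37° C. Supernatant IL-2 measured by AlphaLISA; EC50 from 4-parameter logistic fit.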

In another assay the target is T1, Cbl-b (Homo sapiens, UniProt Q13191).
T1 construct: biotin (biotinylated protein)
Nature of the assay: Cbl-b probe displacement HTRF binding assay. The note with it: 0.4 nM Cbl-b, 150 nM BODIPY probe. The gist of the method: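 Compound competes with BODIPY probe (150 nM) for biotinylated Cbl-b (0.4 nM) in HEPES/NaCl/Triton/TCEP/BSA buffer; 60 min preincubation, 15 min with probe, room temperature. Tb-streptavidin HTRF read; % displacement vs DMSO and no-protein controls, IC50 from four-parameter fit.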

T1 sequence (Q13191 whole entry, species assumed): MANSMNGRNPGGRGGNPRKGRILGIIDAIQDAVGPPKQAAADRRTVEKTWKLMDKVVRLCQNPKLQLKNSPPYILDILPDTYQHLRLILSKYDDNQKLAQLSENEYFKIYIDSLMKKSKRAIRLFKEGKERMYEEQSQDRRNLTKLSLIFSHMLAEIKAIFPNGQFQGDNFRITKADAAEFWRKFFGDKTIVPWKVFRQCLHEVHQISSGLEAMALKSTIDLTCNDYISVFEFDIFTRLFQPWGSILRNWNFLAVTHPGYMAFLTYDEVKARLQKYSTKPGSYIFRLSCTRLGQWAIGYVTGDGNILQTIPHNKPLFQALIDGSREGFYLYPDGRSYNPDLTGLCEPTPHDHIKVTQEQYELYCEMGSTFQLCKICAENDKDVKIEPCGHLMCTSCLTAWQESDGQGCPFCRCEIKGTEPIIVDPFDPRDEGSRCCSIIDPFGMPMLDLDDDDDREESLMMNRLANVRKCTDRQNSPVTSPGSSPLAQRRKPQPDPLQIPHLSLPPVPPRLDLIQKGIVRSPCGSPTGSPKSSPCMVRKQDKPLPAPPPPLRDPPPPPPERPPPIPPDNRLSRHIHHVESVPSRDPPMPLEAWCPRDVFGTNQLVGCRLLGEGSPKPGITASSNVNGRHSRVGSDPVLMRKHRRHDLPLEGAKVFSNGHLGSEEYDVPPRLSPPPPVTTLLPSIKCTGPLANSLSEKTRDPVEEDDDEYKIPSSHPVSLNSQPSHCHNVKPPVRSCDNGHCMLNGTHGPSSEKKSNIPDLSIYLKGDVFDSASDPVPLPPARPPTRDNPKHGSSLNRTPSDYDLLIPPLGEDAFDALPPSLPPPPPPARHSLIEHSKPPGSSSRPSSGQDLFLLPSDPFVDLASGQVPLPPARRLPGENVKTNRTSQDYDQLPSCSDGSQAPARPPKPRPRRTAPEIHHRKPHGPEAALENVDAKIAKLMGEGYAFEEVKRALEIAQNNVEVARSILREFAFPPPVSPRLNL

As for `Cn1cnnc1-c1cc(F)ccc1-c1cc(NC(=O)c2cc(-c3cccc(N)c3)cn(C3CC3)c2=O)nc(C2CC2)c1` [Example 28, N-{6-Cyclopropyl-4-[4-fluoro-2-(4-methyl-4H-1,2,4-triazol-3-yl)phenyl]-2-pyridyl}-5-(m-aminophenyl)-1-cyclopropyl-2-oxo-1,2-dihydronicotinamide], the pEC50 in the assay on Jurkat cells is less than 5.30. Also, the pIC50 at Cbl-b is 6.00 to 7.00.

With `Cn1cnnc1-c1cc(F)ccc1-c1cc(NC(=O)c2cc(C3CC3)cn(C3CC3)c2=O)nc(C2CC2)c1` [Example 29, N-{6-Cyclopropyl-4-[4-fluoro-2-(4-methyl-4H-1,2,4-triazol-3-yl)phenyl]-2-pyridyl}-1-cyclopropyl-5-cyclopropyl-2-oxo-1,2-dihydronicotinamide], in the assay with Jurkat cells, the negative logarithm of the EC50 (pEC50) was 5.30 to 6.00. The same compound gave a pIC50 on Cbl-b of 6.00 to 7.00.

In the case of `Cn1cnnc1-c1cc(F)ccc1-c1cc(NC(=O)c2cc(C3CCNC3)cn(C3CC3)c2=O)nc(C2CC2)c1` (stereo not drawn) [Example 30, N-{6-Cyclopropyl-4-[4-fluoro-2-(4-methyl-4H-1,2,4-triazol-3-yl)phenyl]-2-pyridyl}-1-cyclopropyl-2-oxo-5-(3-pyrrolidinyl)-1,2-dihydronicotinamide], the pEC50 with Jurkat cells was less than 5.30. For the same compound, the pIC50 at Cbl-b was 6.00 to 7.00.

Consider `Cn1cnnc1-c1cc(F)ccc1-c1cc(NC(=O)c2cc(C3CCNC3)cn(CC3CC3)c2=O)nc(C2CC2)c1` (stereo not drawn) [Example 31, N-[6-cyclopropyl-4-[4-fluoro-2-(4-methyl-1,2,4-triazol-3-yl)phenyl]pyridin-2-yl]-1-(cyclopropylmethyl)-2-oxo-5-pyrrolidin-3-ylpyridine-3-carboxamide], for which the pEC50 in the assay with Jurkat cells is less than 5.30. Moreover, the pIC50 on Cbl-b is 6.00 to 7.00.

On to `CN(C)Cc1c[nH]c(=O)c(C(=O)Nc2cc(-c3ccc(F)cc3-c3nncn3C)cc(C3CC3)n2)c1` [Example 32, N-{6-Cyclopropyl-4-[4-fluoro-2-(4-methyl-4H-1,2,4-triazol-3-yl)phenyl]-2-pyridyl}-5-[(dimethylamino)methyl]-2-oxo-1,2-dihydronicotinamide], for which the negative-log EC50 (pEC50) in the assay on Jurkat cells was 5.30 to 6.00. The pIC50 on Cbl-b is more than 7.00.

Consider `CN(C)Cc1cc(C(=O)Nc2cc(-c3ccc(F)cc3-c3nncn3C)cc(C3CC3)n2)c(=O)n(C2CC2)c1` [Example 33, N-{6-Cyclopropyl-4-[4-fluoro-2-(4-methyl-4H-1,2,4-triazol-3-yl)phenyl]-2-pyridyl}-1-cyclopropyl-5-[(dimethylamino)methyl]-2-oxo-1,2-dihydronicotinamide], for which, in the assay with Jurkat cells, the negative-log EC50 (pEC50) is 6.00 to 7.00. For the same compound, the pIC50 at Cbl-b was more than 7.00.

On to `C=CCn1cc(CN(C)C)cc(C(=O)Nc2cc(-c3ccc(F)cc3-c3nncn3C)cc(C3CC3)n2)c1=O` [Example 34, N-{6-Cyclopropyl-4-[4-fluoro-2-(4-methyl-4H-1,2,4-triazol-3-yl)phenyl]-2-pyridyl}-1-allyl-5-[(dimethylamino)methyl]-2-oxo-1,2-dihydronicotinamide], for which, in the assay with Jurkat cells, the pEC50 was 5.30 to 6.00. The compound further had a pIC50 on Cbl-b of more than 7.00.

Consider `C[C@H]1CCCN(Cc2cc(C(=O)Nc3cc(-c4ccc(C#N)cc4-c4nccn4C)cc(Cl)n3)c(=O)n(C3CC3)c2)C1` [Example 35, N-{6-chloro-4-[4-cyano-2-(1-methyl-2-imidazolyl)phenyl]-2-pyridyl}-5-{[(S)-3-methyl-1-piperidyl]methyl}-1-cyclopropyl-2-oxo-1,2-dihydronicotinamide], for which the pEC50 in the assay with Jurkat cells is 6.00 to 7.00. At Cbl-b, this compound gave a pIC50 of more than 7.00.

For `CN1C[C@@H]2C[C@H]1CN2Cc1cc(C(=O)Nc2cc(-c3ccc(C#N)cc3-c3nccn3C)cc(C3CC3)n2)c(=O)n(C2CC2)c1` [Example 38, N-{4-[4-cyano-2-(1-methyl-2-imidazolyl)phenyl]-6-cyclopropyl-2-pyridyl}-5-({(1S,4S)-5-methyl-2,5-diazabicyclo[2.2.1]hept-2-yl}methyl)-1-cyclopropyl-2-oxo-1,2-dihydronicotinamide], in the assay on Jurkat cells, the pEC50 was 5.30 to 6.00. This compound showed a pIC50 at Cbl-b of 6.00 to 7.00.

As for `Cn1ccnc1-c1cc(C#N)ccc1-c1cc(NC(=O)c2cc(CNC3(C)CCC3)cn(C3CC3)c2=O)nc(C2CC2)c1` [Example 39, N-{4-[4-cyano-2-(1-methyl-2-imidazolyl)phenyl]-6-cyclopropyl-2-pyridyl}-1-cyclopropyl-5-[(1-methylcyclobutylamino)methyl]-2-oxo-1,2-dihydronicotinamide], in the assay with Jurkat cells, the pEC50 was more than 7.00. For the same compound, the pIC50 at Cbl-b was more than 7.00.

For the compound `Cn1ccnc1-c1cc(C#N)ccc1-c1cc(NC(=O)c2cc(CNCCOC(F)(F)F)cn(C3CC3)c2=O)nc(C2CC2)c1` [Example 40, N-{4-[4-cyano-2-(1-methyl-2-imidazolyl)phenyl]-6-cyclopropyl-2-pyridyl}-1-cyclopropyl-2-oxo-5-[(2-trifluoromethoxyethylamino)methyl]-1,2-dihydronicotinamide], in the assay on Jurkat cells, the pEC50 is 6.00 to 7.00. For the same compound, the pIC50 at Cbl-b was more than 7.00.

`Cn1ccnc1-c1cc(C#N)ccc1-c1cc(NC(=O)c2cc(CN3CCC4(CC4)C3)cn(C3CC3)c2=O)nc(C2CC2)c1` [Example 41, N-{4-[4-cyano-2-(1-methyl-2-imidazolyl)phenyl]-6-cyclopropyl-2-pyridyl}-5-{(5-aza-5-spiro[2.4]heptyl)methyl}-1-cyclopropyl-2-oxo-1,2-dihydronicotinamide]: the pEC50 in the assay on Jurkat cells is 6.00 to 7.00. Moreover, the negative-log IC50 (pIC50) on Cbl-b is more than 7.00.

As to `COCCNCc1cc(C(=O)Nc2cc(-c3ccc(C#N)cc3-c3nccn3C)cc(C3CC3)n2)c(=O)n(C2CC2)c1` [Example 42, N-{4-[4-cyano-2-(1-methyl-2-imidazolyl)phenyl]-6-cyclopropyl-2-pyridyl}-1-cyclopropyl-5-[(2-methoxyethylamino)methyl]-2-oxo-1,2-dihydronicotinamide], the pEC50 with Jurkat cells is more than 7.00. The pIC50 at Cbl-b was more than 7.00.

Take `C[C@H]1CCCN(Cc2cc(C(=O)Nc3cc(-c4ccc(C#N)cc4-c4nccn4C)cc(C4CC4)n3)c(=O)n(C3CC3)c2)C1` [Example 43, N-{4-[4-cyano-2-(1-methyl-2-imidazolyl)phenyl]-6-cyclopropyl-2-pyridyl}-5-{[(S)-3-methyl-1-piperidyl]methyl}-1-cyclopropyl-2-oxo-1,2-dihydronicotinamide]: in the assay with Jurkat cells, the pEC50 is more than 7.00. At Cbl-b, this compound had a pIC50 of more than 7.00.

For `C[C@H]1CCCN(Cc2cc(C(=O)Nc3cc(-c4ccc(C(N)=O)cc4-c4nccn4C)cc(C4CC4)n3)c(=O)n(C3CC3)c2)C1` [Example 44, N-{4-[4-carbamoyl-2-(1-methyl-2-imidazolyl)phenyl]-6-cyclopropyl-2-pyridyl}-5-{[(S)-3-methyl-1-piperidyl]methyl}-1-cyclopropyl-2-oxo-1,2-dihydronicotinamide], the pEC50 in the assay on Jurkat cells is 5.30 to 6.00. On Cbl-b, this compound showed a pIC50 of 6.00 to 7.00.

With `[2H]C([2H])([2H])n1ccnc1-c1cc(C#N)ccc1-c1cc(NC(=O)c2cc(CNCCOC)cn(C3CC3)c2=O)nc(C2CC2)c1` [Example 45, N-[4-(4-cyano-2-{1-[(^2H3)methyl]-2-imidazolyl}phenyl)-6-cyclopropyl-2-pyridyl]-1-cyclopropyl-5-[(2-methoxyethylamino)methyl]-2-oxo-1,2-dihydronicotinamide], in the assay with Jurkat cells, the pEC50 is more than 7.00. The compound further had a pIC50 on Cbl-b of more than 7.00.

In the case of `COCCNCc1cc(C(=O)Nc2cc(-c3ccc(C#N)cc3-c3nc(C(F)(F)F)cn3C)cc(C3CC3)n2)c(=O)n(C2CC2)c1` [Example 46, N-(4-{4-cyano-2-[1-methyl-4-(trifluoromethyl)-2-imidazolyl]phenyl}-6-cyclopropyl-2-pyridyl)-1-cyclopropyl-5-[(2-methoxyethylamino)methyl]-2-oxo-1,2-dihydronicotinamide], the pEC50 in the assay with Jurkat cells is 5.30 to 6.00. Further, the pIC50 at Cbl-b was 6.00 to 7.00.

For `C[C@H]1CCCN(Cc2cc(C(=O)Nc3cc(-c4ccc(C#N)cc4-c4nc(C(F)(F)F)cn4C)cc(C4CC4)n3)c(=O)n(C3CC3)c2)C1` [Example 47, N-(4-{4-cyano-2-[1-methyl-4-(trifluoromethyl)-2-imidazolyl]phenyl}-6-cyclopropyl-2-pyridyl)-5-{[(S)-3-methyl-1-piperidyl]methyl}-1-cyclopropyl-2-oxo-1,2-dihydronicotinamide], the negative-log EC50 (pEC50) with Jurkat cells is 5.30 to 6.00. The compound further showed a pIC50 on Cbl-b of 6.00 to 7.00.

`COCCNCc1cc(C(=O)Nc2cc(-c3ccc(C#N)cc3-c3nc(C#N)cn3C)cc(C3CC3)n2)c(=O)n(C2CC2)c1` [Example 48, N-{4-[4-cyano-2-(4-cyano-1-methyl-2-imidazolyl)phenyl]-6-cyclopropyl-2-pyridyl}-1-cyclopropyl-5-[(2-methoxyethylamino)methyl]-2-oxo-1,2-dihydronicotinamide]: the pEC50 in the assay with Jurkat cells was more than 7.00. This compound also showed a pIC50 on Cbl-b of more than 7.00.

With `Cn1cc(C#N)nc1-c1cc(C#N)ccc1-c1cc(NC(=O)c2cc(CNC3(C)CCC3)cn(C3CC3)c2=O)nc(C2CC2)c1` [Example 49, N-{4-[4-cyano-2-(4-cyano-1-methyl-2-imidazolyl)phenyl]-6-cyclopropyl-2-pyridyl}-1-cyclopropyl-5-[(1-methylcyclobutylamino)methyl]-2-oxo-1,2-dihydronicotinamide], the pEC50 in the assay with Jurkat cells is more than 7.00. Further, the pIC50 at Cbl-b was more than 7.00.

For `COCCNCc1cc(C(=O)Nc2cc(-c3ccc(C#N)cc3-c3ocnc3C)cc(C3CC3)n2)c(=O)n(C2CC2)c1` [Example 52, N-{4-[4-cyano-2-(4-methyl-1,3-oxazol-5-yl)phenyl]-6-cyclopropyl-2-pyridyl}-1-cyclopropyl-5-[(2-methoxyethylamino)methyl]-2-oxo-1,2-dihydronicotinamide], the pEC50 with Jurkat cells is less than 5.30. The pIC50 at Cbl-b is 5.30 to 6.00.
